# Tests used:
# [1] = test system: E. coli O157:H7 (ATCC 35150); assay: Microtiter plate assay, CPC and propionic acid, abbreviated 4×4 matrix (Experiment 2); assay type: cell-based
# Protocol: (§1) The 4×4 matrix was either used in its entirety or in an abbreviated format as deemed appropriate by previous research conducted with similar organisms using a mixed organic acid blend.
# (§2) Fifteen formulations were prepared using the incomplete 4×4 matrix design in Table 3.
# (§3) Four test organisms—Salmonella Enteritidis (ATCC 13076), Staphylococcus aureus (ATCC 25923) E. coli O157:H7 (ATCC 35150) and Listeria monocytogenes (ATCC 15313)—were selected for use in these screening assays. […] Propionic acid was obtained from Kemin Americas, Inc (Des Moines, Iowa). S. Enteriditis, S. aureus and E. coli were grown aerobically in either Tryptic Soy Broth (TSB) or Nutrient Broth (NB) for 24 h at 37° C. L. monocytogenes was grown aerobically in Brain Heart Infusion Broth (BHI) for 24 h at 37° C. Test inocula were prepared to achieve a 10^6 cfu/ml suspension of bacterial cells. A Petroff Hausser counting chamber was used to determine the level of inoculum.
# (§4) An Optimax microtiter plate reader (Molecular Devices, Sunnyvale, Calif.) at 405 nm wavelength was used to measure the optical density of the suspension in each well. Plates were read kinetically over 24 h. The temperature was maintained at 35° C. All results reflect the average optical density measurements of four microtiter wells. Treatments were prepared in sterile RO at the inclusion levels noted in Tables 1-2. A 100 μl aliquot of test organism and a 100 μl aliquot of experimental treatment were dispensed into individual microtiter plate wells. […] Positive controls consisting of 100 μl of test organism in NB or BHI and 100 μl of sterile water and a negative control consisting of 100 μl of NB (no organisms) and 100 μl of sterile water were also used.
# [2] = test system: Listeria monocytogenes (ATCC 15313); assay: as above; assay type: cell-based; settings: L. monocytogenes
# Protocol: as §1, §2, §3, §4
# [3] = test system: Staphylococcus aureus (ATCC 25923); assay: Microtiter plate assay, CPC and propionic acid, 4×4 matrix (Experiment 2); assay type: cell-based; settings: S. aureus
# Protocol: as §1, §2, §3
# An Optimax microtiter plate reader (Molecular Devices, Sunnyvale, Calif.) at 405 nm wavelength was used to measure the optical density of the suspension in each well. Plates were read kinetically over 24 h. The temperature was maintained at 35° C. All results reflect the average optical density measurements of four microtiter wells. Treatments were prepared in sterile RO at the inclusion levels noted in Tables 1-2. […]
# [4] = test system: E. coli O157:H7 (ATCC 35150); assay: Microtiter plate assay, CPC and mixed organic acids (Experiment 3); assay type: cell-based
# Protocol: (§5) Fifteen formulations were prepared using the incomplete 4×4 matrix design in Table 8.
# (§6) Two test organisms—Salmonella Enteritidis (ATCC 13076) and E. coli O157:H7 (ATCC 35150)—were screened. Salmonella Enteritidis was grown aerobically in Nutrient Broth (NB) for 24 h at 37° C. E. coli was grown in NB for 6 h at 37° C. Test inocula were prepared to achieve a 10^6 cfu/ml suspension of bacterial cells. A Petroff Hausser counting chamber was used to determine the level of inoculum.
# (§7) An Optimax microtiter plate reader (Molecular Devices, Sunnyvale, Calif.) at 405 nm wavelength was used to measure the optical density of the suspension in each well. Plates were read kinetically over 24 h. The temperature was maintained at 35° C. All results reflect the average optical density measurements of four microtiter wells. Treatments were prepared in sterile RO at the inclusion levels noted in Table 1. A 100 μl aliquot of test organism and a 100 μl aliquot of experimental treatment were dispensed into individual microtiter plate wells. Bacteria cultures were diluted in Nutrient Broth (NB) prior to inoculation into the wells. Positive controls consisting of 100 μl of test organism in NB and 100 μl of sterile water and a negative control consisting of 100 μl of NB (no organisms) and 100 μl of sterile water were also used.
# [5] = test system: Salmonella Enteritidis (ATCC 13076); assay: as above; assay type: cell-based
# Protocol: as §5, §6, §7
# [6] = test system: Salmonella Enteritidis (ATCC 13076); assay: microbe, parasite or virus in culture; settings: Salmonella enterica, ATCC13076|ENTERITIDIS, 24 h, read-out: Minimum Inhibitory Concentration (MIC)
# Protocol: A Petroff Hausser counting chamber was used to determine the level of inoculum.
# An Optimax microtiter plate reader (Molecular Devices, Sunnyvale, Calif.) at 405 nm wavelength was used to measure the optical density of the suspension in each well. Plates were read kinetically over 24 h. The temperature was maintained at 35° C. All results reflect the average optical density measurements of four microtiter wells. […] A 100 μl aliquot of test organism and a 100 μl aliquot of experimental treatment were dispensed into individual microtiter plate wells.
# [7] = test system: Salmonella Enteritidis (ATCC 13076); assay: Microtiter plate assay, CPC and propionic acid, 3×3 matrix (Experiment 2); assay type: cell-based; settings: propionic acid alone, previous experimentation
# Protocol: as §1
# Eight formulations were prepared using the incomplete 3×3 matrix design in Table 2. […] Positive and negative controls were included as described in Experiment 1.
# Propionic acid was obtained from Kemin Americas, Inc (Des Moines, Iowa). S. Enteriditis, S. aureus and E. coli were grown aerobically in either Tryptic Soy Broth (TSB) or Nutrient Broth (NB) for 24 h at 37° C. L. monocytogenes was grown aerobically in Brain Heart Infusion Broth (BHI) for 24 h at 37° C.
# Plates were read kinetically over 24 h. The temperature was maintained at 35° C. […] Treatments were prepared in sterile RO at the inclusion levels noted in Tables 1-2.
# [8] = test system: Salmonella Enteritidis (ATCC 13076); assay: Microtiter plate assay, CPC and acetic acid (Experiment 4); assay type: cell-based; settings: S. Enteritidis, acetic acid treatment alone
# Protocol: Test inocula were prepared to achieve a 10^6 cfu/ml suspension of bacterial cells. A Petroff Hausser counting chamber was used to determine the level of inoculum.
# as §4, with “Table 1.” for “Tables 1-2.”, “NB” for “NB or BHI”
smiles,measurement,setting,value
"CCCCCCCCCCCCCCCC[n+]1ccccc1 [CPC, Cetylpyridinium chloride]",propionic acid substituted by 1 ppm CPC,[1]; E. coli O157:H7,50 ppm
same,propionic acid substituted by 1 ppm CPC,[2],> 200 ppm
same,propionic acid substituted by 1 ppm CPC,[3],approximately 200 ppm
same,mixed organic acids substituted by 1 ppm CPC,[4],50 ppm
same,mixed acids substituted by 1 ppm CPC,[5],50 ppm
"C=O [37% formaldehyde, formaldehyde]",MIC,[6],~50 µg/mL
CCC(=O)O [propionic acid],concentration sufficient to inhibit growth,[7],250 ppm
same,concentration that completely inhibited growth,"[1]; E. coli, propionic acid treatment alone",250 ppm
same,concentration shown to inhibit growth,"[3]; propionic acid alone, previous experimentation",250 ppm
CC(=O)O [acetic acid],concentration that completely inhibited growth,[8],250 ppm

# Reference: patent US20050250821A1, “Quaternary ammonium compounds in the treatment of water and as antimicrobial wash” (priority 2004, published 2005)
